Type in all cases: physicochemical
Data set [1] in a line: Water dispersibility (lumping) evaluated by five panelists. As to conditions: second Ex. 1 powder, average particle size 20 μm. As to the method: (§1) The milled products of the crystals obtained in Examples 1-3 and the powder obtained in Comparative Example 2 were examined for dusting (scattering) and water solubility and dispersibility. Also, these powders were sieved and their average particle diameters were determined.
Dispersibility was evaluated by five panelists. A 1-gram powder sample was placed in the palm of each panelist and rubbed and examined for lumping in the presence of a small amount of water. Findings were evaluated using a three-grade rating system: good (O) for no lumping, acceptable (Δ) for a small amount of lumping, and poor (x) for a large amount of lumping.

The nature of data set [2]: Average particle diameter by sieving. As to the method:
Using the GILSONIC AUTOSIEVER (GA-6, manufactured by GILSON), an about 2 g coarsely milled sample (pass through 425μ mesh) was sieved for 5 minutes and the resulting particles were classified by size; the average particle diameter was calculated from the weights of particles in respective classes.
as §1

A short description of data set [3]: Scattering (dusting) test of dropped powder. As to conditions: second Ex. 1 powder, average particle size 20 μm; relative ratio to Comparative Example 2. Here is the method: as §1
Scattering was quantified as described below. A 5 g powder sample was dropped by a distance of 1.2 m from the top of a cylinder (diameter: 12.5 cm). Two seconds after the drop, the scattered powder was sucked from the inlet in the base of the cylinder for 6 seconds using a blower; the powder caught by filter paper (GB100R, manufactured by Advantest Corporation) on the blower surface was weighed. This weight was expressed as a relative ratio to the powder weight in Comparative Example 2.

Data set [4] in a line: Water solubility: time taken to dissolve powder in water. The note with it: second Ex. 1 powder, average particle size 20 μm; 1.5 g in 100 g of water at 30° C. As to the method:
as §1
In this test, solubility is defined as time taken to dissolve 1.5 g of powder in 100 g of water at 30° C.

The mark [5] stands for this setting: milled product of crystal (Com. Ex. 2: spray-dried powder), sieved.

Each structure is given as a SMILES string.

On to `CCCCCCCCCCCC(=O)NCC(=O)[O-].[Na+]` [Ex. 1, N-lauroylglycine Sodium Salt], for which the Dispersibility entry in data set [1] is listed as “◯”. Besides, the Average particle size in data set [2] (setting [5]) was 85 μm; in data set [2] (second Ex. 1 powder (finer)), 20 μm. The Scattering in data set [3] is on record as 0.87. The Dissolution rate in data set [4] worked out at 341 s.
`CCCCCCCCCCCCCC(=O)NCC(=O)[O-].[Na+]` [Ex. 3, N-myristoylglycine Sodium Salt] gave an Average particle size in data set [2] (setting [5]) of 87 μm.
